Assay results from patent US20100055168A1, “CATIONIC LIPIDS AND USES THEREOF” (ABBOTT LABORATORIES, priority 2008, published 2010).

Test system: β-galactosidase in tumor sections
Assay: IHC analysis of β-galactosidase staining in intraliver tumor sections after i.v. dosing of Lipid-Based Particles
Assay type: in vivo, Scid female mice
Parameters: key: −: there was no staining, a small area of weak staining, or disperse strong single cell staining; ±: there was 5% of the section with weak staining or one patch of strong staining; +: there was 15% of the section with strong staining; ++: there was ˜50% of the section with strong straining; +++: there was 80% of the section with strong straining; ++++: the whole section had strong staining
Conditions: intraliver tumor model, Scid mice, tail vein (i.v) injection
Method: The animal studies were carried out in accordance with internal Institutional Animal Care and Use Committee (IACUC) guidelines at Abbott Laboratories. Scid female mice at 6 to 8 weeks of age were obtained from Charles River Laboratory and used for […] tumor models. Mouse livers were exposed by vertical incision on mouse abdomens and the tumor cells were directly injected into the livers. The incision was closed by suture and wound clips. All cell lines used for creating xenograft tumors were subjected to the IMPACT profile I test (18 agents) at the University of Missouri Research Animal Diagnostic and Investigative Laboratory, and all cell lines were found negative for the 18 infectious agents tested. Tumor cells were suspended in a 1:1 mixture of S-MEM (Invitrogen, Carlsbad, Calif.) and matrigel (BD Bioscience, San Jose, Calif.) and inoculated at 1×10E6 cells per animal. Treatments were started 3 4 weeks after tumor inoculation. Formulated or unformulated siRNAs were administrated via tail vein (i.v) injection. IHC was carried out as previously described [Li, L., et al., Evaluating hypoxia-inducible factor-1alpha as a cancer therapeutic target via inducible RNA interference in vivo. Cancer Res, 2005. 65(16): p. 7249-58]. Briefly, tumors were excised, cut into pieces of less than 3 mm in thickness and immediately fixed in buffered formalin solution with neutral pH (Sigma, St. Louis, Mo.). The formalin-fixed and paraffin-embedded tumor sections were then used for staining. The mouse anti-β-galactosidase mAb (Promega, Madison, Wis.) was used to detect β-galactosidase in tumor sections. […] IHC images were acquired using the Nikon TE2000 inverted microscope. The β-galactosidase staining was evaluated by 2 people independently based on the scoring system listed below. The average of the score was calculated for each tumor.

Measured: In vivo Response (β-galactosidase IHC staining score)

C[C@H]1c2cccc(O)c2C(=O)C2=C(O)[C@]3(O)C(=O)C(C(N)=O)=C(O)[C@@H](N(C)C)[C@@H]3[C@@H](O)[C@@H]21 [Doxycycline]
+++: column 1 (individual tumor, head not explained) | column 2 (individual tumor, head not explained) | column 3 (individual tumor, head not explained) | column 4 (individual tumor, head not explained) | column 5 (individual tumor, head not explained) | column 6 (individual tumor, head not explained)
